Consider four compounds from patent publication US12252524B2, “GIP/GLP1 co-agonist compounds” (Eli Lilly and Company, priority 2018, dated 2025).

Test [1] concerns the target T1, gastric inhibitory peptide receptor (GIPR) (Homo sapiens, UniProt P48546).
T1 sequence (P48546 22-466): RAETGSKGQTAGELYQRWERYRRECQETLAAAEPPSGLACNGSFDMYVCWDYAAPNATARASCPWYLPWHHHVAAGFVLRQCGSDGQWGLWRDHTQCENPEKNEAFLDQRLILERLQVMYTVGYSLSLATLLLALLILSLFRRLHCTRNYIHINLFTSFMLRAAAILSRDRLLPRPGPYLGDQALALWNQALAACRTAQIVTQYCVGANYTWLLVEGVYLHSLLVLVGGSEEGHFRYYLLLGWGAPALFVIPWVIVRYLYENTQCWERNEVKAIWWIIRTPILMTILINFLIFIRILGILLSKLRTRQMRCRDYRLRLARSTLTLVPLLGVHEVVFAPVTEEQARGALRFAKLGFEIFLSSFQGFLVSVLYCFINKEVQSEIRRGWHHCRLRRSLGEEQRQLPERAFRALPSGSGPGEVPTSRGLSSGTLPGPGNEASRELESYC
As to the kind of experiment: cAMP pharmacological functional assay in presence of casein, hGIPR. Type of test: cell-based. The settings on record: HEK293 cells expressing hGIPR, 0.1% Casein, geometric mean; read-out: hGIPR cAMP Rel EC50 nM (SEM, n).

Test [2] addresses T2, human Gcg receptor (Homo sapiens, UniProt P47871).
T2 construct: expressed in transfected cells; crude membranes
The test can be described thus: [125I]-Glucagon binding (SPA), human Gcg receptor. The settings on record: read-out: hGLcgR Ki, nM (SEM, n). The procedure, abridged: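 Cell pellets were lysed in hypotonic Tris buffer, pH 7.5, homogenized, and spun at low then high speed to give crude membranes. Ki was derived from the fitted IC50.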

Test [3] addresses T3, human GIP receptor (Homo sapiens, UniProt P48546).
T3 construct: expressed in transfected cells; crude membranes
T3 sequence (P48546 22-466): T1 sequence (P48546 22-466)
The test can be described thus: [125I]-GIP binding (SPA), human GIP receptor. As to conditions: read-out: hGIPR Ki, nM (SEM, n).

The target of test [4] is human GLP-1R (Homo sapiens, UniProt P43220). As to the kind of experiment: [125I]-GLP-1 binding (SPA), human GLP-1 receptor. Further details: expressed in transfected cells; crude membranes. As to conditions: read-out: hGLP1R Ki, (nM) (SEM, n). The procedure, abridged: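 Membranes: hypotonic lysis (50 mM Tris HCl, pH 7.5, protease inhibitors), Potter-Elvehjem homogenization, high-speed pellet (35000×g 1 h or 25000×g 30 min, 4° C.). Buffer: 25 mM HEPES pH 7.4, 2.5 mM CaCl2, 1 mM MgCl2. Four-parameter IC50 fit; Ki as geometric mean ± SEM.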
human GLP-1R, sequence (P43220 24-463): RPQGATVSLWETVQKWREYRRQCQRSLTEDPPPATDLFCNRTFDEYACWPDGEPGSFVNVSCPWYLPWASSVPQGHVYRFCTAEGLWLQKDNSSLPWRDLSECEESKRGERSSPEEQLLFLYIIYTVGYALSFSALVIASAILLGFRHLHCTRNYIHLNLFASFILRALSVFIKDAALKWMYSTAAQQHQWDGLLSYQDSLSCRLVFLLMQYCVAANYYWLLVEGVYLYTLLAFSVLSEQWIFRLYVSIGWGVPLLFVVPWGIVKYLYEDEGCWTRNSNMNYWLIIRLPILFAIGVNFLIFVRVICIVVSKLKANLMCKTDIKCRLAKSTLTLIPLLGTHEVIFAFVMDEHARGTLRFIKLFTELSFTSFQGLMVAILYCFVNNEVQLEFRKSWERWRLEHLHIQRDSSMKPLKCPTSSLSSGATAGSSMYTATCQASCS

In test [5] the target is human GLP-1 receptor (GLP-1R) (Homo sapiens, UniProt P43220). As to the kind of experiment: cAMP pharmacological functional assay in presence of casein, hGLP-1R. Type of test: cell-based. As to conditions: HEK293 cells expressing hGLP-1R, 0.1% Casein, geometric mean; read-out: hGLP1R cAMP Rel EC50 nM (SEM, n).
human GLP-1 receptor (GLP-1R), sequence (P43220 24-463): as above

Numbered stars: 1 amine (or outer) side, 2 acyl side, 3 side chain; on linkers, the order of the positions; unused ones are H or OH. Square brackets hold non-standard residues; d marks the D form. Side chains are listed from the residue outwards. Peptide text beside a SMILES is read from it. * marks the point of attachment. C20 diacid = O=C(O)CCCCCCCCCCCCCCCCCCC(=O)*; γGlu = O=C(O)[C@H](CCC(=O)[*:2])N[*:1]; Desaminotyrosyl = O=C(CCc1ccc(O)cc1)*; αMeF = C[C@](N)(Cc1ccccc1)C(=O)O; Aad = N[C@@H](CCCC(=O)O)C(=O)O; αMeL = CC(C)C[C@](C)(N)C(=O)O; AEEA = NCCOCCOCC(=O)O; Aib = CC(C)(N)C(=O)O Some results are limits rather than exact numbers.

The term EC50 denotes the concentration needed to bring the measured effect to its halfway point. For orientation: Ki means the equilibrium dissociation constant of an inhibitor or competing ligand from its target.

T2 sequence (P47871 26-477): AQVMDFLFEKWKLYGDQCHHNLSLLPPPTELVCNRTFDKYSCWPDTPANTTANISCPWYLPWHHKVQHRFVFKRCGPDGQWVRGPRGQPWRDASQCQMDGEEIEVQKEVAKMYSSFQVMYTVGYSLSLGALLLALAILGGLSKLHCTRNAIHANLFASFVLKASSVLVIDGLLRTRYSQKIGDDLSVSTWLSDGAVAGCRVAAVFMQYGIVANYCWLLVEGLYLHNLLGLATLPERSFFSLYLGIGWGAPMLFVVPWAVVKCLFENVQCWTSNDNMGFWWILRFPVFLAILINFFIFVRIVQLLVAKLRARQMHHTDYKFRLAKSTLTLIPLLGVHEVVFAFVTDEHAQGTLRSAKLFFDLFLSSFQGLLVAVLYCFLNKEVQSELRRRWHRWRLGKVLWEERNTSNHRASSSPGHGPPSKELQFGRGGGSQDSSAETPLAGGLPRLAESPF

Turning to `CC[C@H](C)[C@H](NC(=O)[C@H](CC(C)C)NC(=O)[C@H](Cc1ccc(O)cc1)NC(=O)[C@H](CCC(=O)O)NC(=O)[C@@H](NC(=O)[C@H](Cc1ccccc1)NC(=O)[C@H](C)NC(=O)C(C)(C)NC(=O)[C@H](CCC(N)=O)NC(=O)[C@H](C)NC(=O)[C@H](CCCCNC(=O)COCCOCCNC(=O)COCCOCCNC(=O)CC[C@H](NC(=O)CCCCCCCCCCCCCCCCCCC(=O)O)C(=O)O)NC(=O)[C@H](CCCCN)NC(=O)[C@H](CC(=O)O)NC(=O)[C@H](CC(C)C)NC(=O)[C@H](CC(C)C)NC(=O)[C@@H](NC(=O)[C@H](CO)NC(=O)[C@H](CCC(=O)O)NC(=O)[C@H](CC(=O)O)NC(=O)[C@H](CO)NC(=O)[C@@H](NC(=O)[C@](C)(Cc1ccccc1)NC(=O)[C@@H](NC(=O)CNC(=O)[C@H](CCC(=O)O)NC(=O)C(C)(C)NC(=O)[C@@H](N)Cc1ccc(O)cc1)[C@@H](C)O)[C@@H](C)O)[C@@H](C)CC)[C@@H](C)CC)C(=O)N[C@@H](CCC(=O)O)C(=O)NCC(=O)NCC(=O)N1CCC[C@H]1C(=O)N[C@@H](CO)C(=O)N[C@@H](CO)C(=O)NCC(=O)N[C@@H](C)C(=O)N1CCC[C@H]1C(=O)N1CCC[C@H]1C(=O)N1CCC[C@H]1C(=O)N[C@@H](CO)C(N)=O` [Example 130] (H-Y[Aib]EGT[αMeF]TSDESILLDKK([AEEA-AEEA-γGlu-C20 diacid])AQ[Aib]AFIEYLIEGGPSSGAPPPS-NH2; N-terminus assumed), the EC50 in test [1] turned out to be 1.55 nM; in test [5], 0.368 nM. In addition, the inhibitory constant (Ki) in test [2] was above 1060 nM; in test [3], 0.177 nM; in test [4], 3.66 nM.

For `CC[C@H](C)[C@H](NC(=O)[C@H](CC(C)C)NC(=O)[C@H](Cc1ccc(O)cc1)NC(=O)[C@H](CCC(=O)O)NC(=O)[C@@H](NC(=O)[C@H](Cc1ccccc1)NC(=O)[C@H](C)NC(=O)C(C)(C)NC(=O)[C@H](CCC(N)=O)NC(=O)[C@H](C)NC(=O)[C@H](CCCCNC(=O)COCCOCCNC(=O)COCCOCCNC(=O)CC[C@H](NC(=O)CCCCCCCCCCCCCCCCCCC(=O)O)C(=O)O)NC(=O)[C@H](CCC(=O)O)NC(=O)[C@H](CC(=O)O)NC(=O)[C@H](CC(C)C)NC(=O)C(C)(C)NC(=O)[C@@H](NC(=O)[C@H](CO)NC(=O)[C@H](Cc1ccc(O)cc1)NC(=O)[C@H](CC(=O)O)NC(=O)[C@H](CO)NC(=O)[C@@H](NC(=O)[C@](C)(Cc1ccccc1)NC(=O)[C@@H](NC(=O)CNC(=O)[C@H](CCC(=O)O)NC(=O)C(C)(C)NC(=O)CCc1ccc(O)cc1)[C@@H](C)O)[C@@H](C)O)[C@@H](C)CC)[C@@H](C)CC)C(=O)N[C@@H](CCC(=O)O)C(=O)NCC(=O)NCC(=O)N1CCC[C@H]1C(=O)N[C@@H](CO)C(=O)N[C@@H](CO)C(=O)NCC(=O)N[C@@H](C)C(=O)N1CCC[C@H]1C(=O)N1CCC[C@H]1C(=O)N1CCC[C@H]1C(=O)N[C@@H](CO)C(N)=O` [Example 133] (Desaminotyrosyl-[Aib]EGT[αMeF]TSDYSI[Aib]LDEK([AEEA-AEEA-γGlu-C20 diacid])AQ[Aib]AFIEYLIEGGPSSGAPPPS-NH2), the values for the concentration giving a half-maximal response (EC50) in test [1] and in test [5] were 0.0879 nM and 0.0436 nM, respectively. Further, the values for the Ki in test [2], in test [3] and in test [4] were 216 nM, 0.157 nM and 11.4 nM, respectively.

Take `CC[C@H](C)[C@H](NC(=O)[C@H](CC(C)C)NC(=O)[C@H](Cc1ccc(O)cc1)NC(=O)[C@H](CCC(=O)O)NC(=O)[C@@H](NC(=O)[C@H](Cc1ccccc1)NC(=O)[C@H](C)NC(=O)C(C)(C)NC(=O)[C@H](CCC(N)=O)NC(=O)[C@H](C)NC(=O)[C@H](CCCCNC(=O)COCCOCCNC(=O)COCCOCCNC(=O)CC[C@H](NC(=O)CCCCCCCCCCCCCCCCCCC(=O)O)C(=O)O)NC(=O)[C@H](CCCCN)NC(=O)[C@H](CC(=O)O)NC(=O)[C@H](CC(C)C)NC(=O)[C@H](CC(C)C)NC(=O)[C@@H](NC(=O)[C@H](CO)NC(=O)[C@H](Cc1ccc(O)cc1)NC(=O)[C@H](CC(=O)O)NC(=O)[C@H](CO)NC(=O)[C@@H](NC(=O)[C@H](Cc1ccccc1)NC(=O)[C@@H](NC(=O)CNC(=O)[C@H](CC(N)=O)NC(=O)C(C)(C)NC(=O)[C@@H](N)Cc1c[nH]cn1)[C@@H](C)O)[C@@H](C)O)[C@@H](C)CC)[C@@H](C)CC)C(=O)N[C@@H](CCC(=O)O)C(=O)NCC(=O)NCC(=O)N1CCC[C@H]1C(=O)N[C@@H](CO)C(=O)N[C@@H](CO)C(=O)NCC(=O)N[C@@H](C)C(=O)N1CCC[C@H]1C(=O)N1CCC[C@H]1C(=O)N1CCC[C@H]1C(=O)N[C@@H](CO)C(N)=O` [Example 135] (H-H[Aib]NGTFTSDYSILLDKK([AEEA-AEEA-γGlu-C20 diacid])AQ[Aib]AFIEYLIEGGPSSGAPPPS-NH2): the EC50 stood at 0.373 nM in test [1] and 0.131 nM in test [5]. Also, the Ki in test [2] was 454 nM; in test [3], 0.161 nM; in test [4], 3.01 nM.

As to `CC[C@H](C)[C@H](NC(=O)[C@H](CC(C)C)NC(=O)[C@H](Cc1ccc(O)cc1)NC(=O)[C@H](CCC(=O)O)NC(=O)[C@@H](NC(=O)[C@H](Cc1ccccc1)NC(=O)[C@H](CCCC(=O)O)NC(=O)C(C)(C)NC(=O)[C@H](CCC(N)=O)NC(=O)[C@H](C)NC(=O)[C@H](CCCCNC(=O)COCCOCCNC(=O)COCCOCCNC(=O)CC[C@H](NC(=O)CCCCCCCCCCCCCCCCCCC(=O)O)C(=O)O)NC(=O)[C@H](CCCCN)NC(=O)[C@H](CC(=O)O)NC(=O)[C@H](CC(C)C)NC(=O)[C@](C)(CC(C)C)NC(=O)[C@@H](NC(=O)[C@H](CO)NC(=O)[C@H](Cc1ccc(O)cc1)NC(=O)[C@H](CC(=O)O)NC(=O)[C@H](CO)NC(=O)[C@@H](NC(=O)[C@](C)(Cc1ccccc1)NC(=O)[C@@H](NC(=O)CNC(=O)[C@H](CCC(=O)O)NC(=O)C(C)(C)NC(=O)[C@@H](N)Cc1ccc(O)cc1)[C@@H](C)O)[C@@H](C)O)[C@@H](C)CC)[C@@H](C)CC)C(=O)N[C@@H](CCC(=O)O)C(=O)NCC(=O)NCC(=O)N1CCC[C@H]1C(=O)N[C@@H](CO)C(=O)N[C@@H](CO)C(=O)NCC(=O)N[C@@H](C)C(=O)N1CCC[C@H]1C(=O)N1CCC[C@H]1C(=O)N1CCC[C@H]1C(=O)N[C@@H](CO)C(N)=O` [Example 137] (H-Y[Aib]EGT[αMeF]TSDYSI[αMeL]LDKK([AEEA-AEEA-γGlu-C20 diacid])AQ[Aib][Aad]FIEYLIEGGPSSGAPPPS-NH2), the EC50 in test [1] worked out at 0.0333 nM; in test [5], 0.0397 nM. Besides, the inhibitory constant (Ki) in test [2] turned out to be 98.1 nM; in test [3], 0.0373 nM; in test [4] it was 1.24 nM.
